Several values for one entry are separate records, joined by “and”; a condition that tells them apart may be missing. Equal values may be shown once.
Columns and labels:
hM4 receptors = target: T1, hM4 receptors (Homo sapiens, UniProt P08173); test: Calcium mobilization (FLIPR), ACh concentration-response curves, AV12 Gα15 hM4 cells; assay type: cell-based
T1 construct: expressed in transfected cells
T1 sequence (P08173 1-479): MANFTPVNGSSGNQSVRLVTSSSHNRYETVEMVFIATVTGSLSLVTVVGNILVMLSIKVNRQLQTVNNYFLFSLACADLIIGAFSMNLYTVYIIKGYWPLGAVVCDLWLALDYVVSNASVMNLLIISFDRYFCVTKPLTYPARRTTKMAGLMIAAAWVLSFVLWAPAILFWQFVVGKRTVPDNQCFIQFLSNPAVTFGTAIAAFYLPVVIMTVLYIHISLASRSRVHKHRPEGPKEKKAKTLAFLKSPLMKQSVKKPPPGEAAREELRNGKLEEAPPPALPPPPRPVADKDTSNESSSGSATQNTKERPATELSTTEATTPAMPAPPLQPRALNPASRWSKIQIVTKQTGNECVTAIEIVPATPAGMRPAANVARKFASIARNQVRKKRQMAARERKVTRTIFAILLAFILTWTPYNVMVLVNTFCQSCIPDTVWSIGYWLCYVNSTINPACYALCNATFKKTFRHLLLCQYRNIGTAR
Method: (§1) Automated multiple compound additions are timed by computer program. Cells are pre-incubated with increasing concentration of compounds.

hM1 receptors = target: T2, hM1 receptors (Homo sapiens, UniProt P11229); test: Calcium mobilization (FLIPR), ACh concentration-response curves, CHO hM1 cells; assay type: cell-based; conditions: CHO cells stably expressing hM1
T2 construct: expressed in transfected cells
T2 sequence (P11229 1-460): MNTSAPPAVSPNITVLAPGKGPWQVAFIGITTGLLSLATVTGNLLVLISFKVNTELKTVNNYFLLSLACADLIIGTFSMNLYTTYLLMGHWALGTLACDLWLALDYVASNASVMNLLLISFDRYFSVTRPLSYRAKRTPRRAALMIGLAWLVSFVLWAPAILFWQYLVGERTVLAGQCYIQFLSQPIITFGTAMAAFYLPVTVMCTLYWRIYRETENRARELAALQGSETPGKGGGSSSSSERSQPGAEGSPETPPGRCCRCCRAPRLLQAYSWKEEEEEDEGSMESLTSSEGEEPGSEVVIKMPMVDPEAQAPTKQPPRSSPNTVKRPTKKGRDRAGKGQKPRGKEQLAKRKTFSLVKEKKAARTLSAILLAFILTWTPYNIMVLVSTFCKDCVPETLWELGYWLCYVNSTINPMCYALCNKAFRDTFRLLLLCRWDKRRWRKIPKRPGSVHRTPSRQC
Method: as §1

hM3 receptors = target: T3, hM3 receptors (Homo sapiens, UniProt P20309); test: Calcium mobilization (FLIPR), ACh concentration-response curves, CHO hM3 cells; assay type: cell-based; conditions: CHO cells stably expressing hM3
T3 construct: expressed in transfected cells
Method: as §1

hM5 receptors = target: T4, hM5 receptors (Homo sapiens, UniProt P08912); test: Calcium mobilization (FLIPR), ACh concentration-response curves, CHO hM5 cells; assay type: cell-based; conditions: CHO cells stably expressing hM5
T4 construct: expressed in transfected cells
T4 sequence (P08912 1-532): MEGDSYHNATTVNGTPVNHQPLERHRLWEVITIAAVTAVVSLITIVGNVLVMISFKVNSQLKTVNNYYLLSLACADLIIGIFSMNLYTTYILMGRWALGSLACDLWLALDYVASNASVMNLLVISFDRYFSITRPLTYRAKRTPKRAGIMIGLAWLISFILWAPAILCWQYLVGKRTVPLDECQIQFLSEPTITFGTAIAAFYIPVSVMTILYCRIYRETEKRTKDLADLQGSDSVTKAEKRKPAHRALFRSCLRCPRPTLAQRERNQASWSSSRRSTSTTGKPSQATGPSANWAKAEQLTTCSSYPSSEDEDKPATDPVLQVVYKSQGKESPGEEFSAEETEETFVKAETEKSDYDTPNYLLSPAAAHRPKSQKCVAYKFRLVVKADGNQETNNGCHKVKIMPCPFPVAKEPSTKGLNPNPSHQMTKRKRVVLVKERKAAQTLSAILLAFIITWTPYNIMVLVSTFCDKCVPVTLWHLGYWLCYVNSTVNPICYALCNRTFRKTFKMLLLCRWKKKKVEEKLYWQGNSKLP
Method: as §1

hM2 receptors = hM2 receptors (Homo sapiens, UniProt P08172); conditions: AV12 Gα15 hM2; too modest to be accurately estimated
Method: Using a calcium-sensitive fluorescent dye, agonist or potentiation activity of a given compound can be detected in a single assay using a Fluorescence Light Imaging Plate Reader (FLIPR) instrument. Cells are plated in Poly-D-Lysine coated black plates/clear bottom (Becton Dickinsons) at 40,000 cells per ml (100 μl/well) in growth media 24 hours prior to running the assay. The medium is removed before the addition of 50 μl fluorescence dye solution (HBSS containing 20 mM Hepes, 10 μM Fluo-3-AM, 0.05% pluronic acid F127; supplemented with 2.5 mM probenecid for CHO cell assays). The cells are incubated with the dye for 75 minutes before replacing with assay buffer (20 mM Hepes in Hanks balanced salt solution (Gibco); supplemented with 2.5 mM probenecid for CHO cells). The plate is transferred to the FLIPR machine (Molecular Devices) for fluorescence recordings. The cells are periodically excited by 488 nm light, and the emitted fluorescent light passed through a 510-570 nm filter and then detected by a cooled CCD camera. Automated multiple compound additions are timed by computer program. Cells are pre-incubated with increasing concentration of compounds. After 2 minutes, a range of acetylcholine concentrations is added to each concentration of compound. […]

Male Fisher-344 rats = test: Conditioned avoidance response; assay type: in vivo, rat
Text: The apparatus is a Coulbourn Instruments shuttle operant chamber. Each session equals a total of 50 trials, presented on a 30 second inter-trial interval, and each trial begins with simultaneous illumination of a houselight and rising of a guillotine door. The rat is given 10 seconds to cross over to the other side (an avoidance response) before a 1 mA footshock is initiated. The shock remains on until the rat crosses over to the other side (an escape response) or 10 seconds has elapsed (an escape failure). […] The number of avoidance, escape and escape failure responses during each session is recorded and used for analysis.
Each test compound is administered orally 2 hours prior to testing. Oxo (0.03 mg/kg) is administered subcutaneously 30 minutes prior to testing. Data are analyzed via a one-way (within-group design) Analysis of Variance (ANOVA). In cases of a significant ANOVA (p<0.05), post-hoc comparisons may be made in which compound doses are compared back to the Oxo alone group (paired t-test).

T3 sequence (P20309 whole entry): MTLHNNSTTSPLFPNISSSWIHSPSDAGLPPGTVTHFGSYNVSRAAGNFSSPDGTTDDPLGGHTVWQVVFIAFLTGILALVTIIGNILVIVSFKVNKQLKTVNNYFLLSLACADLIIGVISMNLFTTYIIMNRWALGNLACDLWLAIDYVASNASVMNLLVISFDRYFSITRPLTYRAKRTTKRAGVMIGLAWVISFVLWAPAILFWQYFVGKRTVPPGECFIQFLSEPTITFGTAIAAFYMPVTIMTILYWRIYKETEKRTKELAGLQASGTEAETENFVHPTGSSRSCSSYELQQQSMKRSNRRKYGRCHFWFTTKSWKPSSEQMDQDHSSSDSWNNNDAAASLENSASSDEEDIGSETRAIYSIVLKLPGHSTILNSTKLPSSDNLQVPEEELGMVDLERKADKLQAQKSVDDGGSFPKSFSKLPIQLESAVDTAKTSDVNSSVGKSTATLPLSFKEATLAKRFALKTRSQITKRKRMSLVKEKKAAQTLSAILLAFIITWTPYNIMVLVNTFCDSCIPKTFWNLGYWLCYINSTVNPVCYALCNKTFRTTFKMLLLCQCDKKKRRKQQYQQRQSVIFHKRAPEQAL
Sequence of hM2 receptors (P08172 whole entry): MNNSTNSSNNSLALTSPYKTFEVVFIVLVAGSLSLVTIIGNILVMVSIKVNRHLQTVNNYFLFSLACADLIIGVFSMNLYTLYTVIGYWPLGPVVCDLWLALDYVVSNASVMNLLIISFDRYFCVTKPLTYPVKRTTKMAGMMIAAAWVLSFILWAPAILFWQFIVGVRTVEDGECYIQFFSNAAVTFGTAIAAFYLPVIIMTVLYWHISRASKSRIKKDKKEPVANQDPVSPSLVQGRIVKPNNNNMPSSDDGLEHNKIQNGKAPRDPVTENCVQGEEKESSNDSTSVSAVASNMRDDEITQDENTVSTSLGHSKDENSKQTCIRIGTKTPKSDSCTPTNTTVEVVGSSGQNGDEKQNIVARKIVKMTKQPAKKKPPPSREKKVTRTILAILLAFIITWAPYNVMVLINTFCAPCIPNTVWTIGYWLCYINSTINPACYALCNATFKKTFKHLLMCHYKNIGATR

COc1nc2sc(C(=O)NC3CC3)c(N)c2c(C)c1Cl [Example 1, 3-Amino-5-chloro-6-methoxy-4-methyl-thieno[2,3-b]pyridine-2-carboxylic acid cyclopropylamide]
Kd (hM4 receptors): 0.2 ± 0.042 µM | potentiation of acetylcholine versus carbachol (hM4 receptors; FLIPR, both non-selective full muscarinic agonists, receptor subtype not given): potentiated in an equivalent fashion | cooperatively factor for hM4 receptors (hM4 receptors; estimated, FLIPR, ACh curves, AV12 Gα15 hM4, duplicates, at least three experiments): 34.5±3.5 | allosteric effect on ACh response (hM1 receptors): No significant allosteric effect | allosteric effect on ACh response (hM3 receptors): No significant allosteric effect | allosteric effect on ACh response (hM5 receptors): No significant allosteric effect | allosteric effect on ACh response (hM2 receptors): modest allosteric effect

Cc1c(Cl)c(OCCN2CCOCC2)nc2sc(C(=O)NC3CC3)c(N)c12 [Example 6, 3-Amino-5-chloro-4-methyl-6-(2-morpholin-4-yl-ethoxy)-thieno[2,3-b]pyridine-2-carboxylic acid cyclopropylamide]
Percent Avoidance Response (Mean ± S.E.M.), Oxo + Test Compound 10 mg/kg (Male Fisher-344 rats; test compound 10 mg/kg orally 2 hours prior, Oxo 0.03 mg/kg s.c. 30 minutes prior): 90 ± 3.4%

Cc1c(Cl)c(OCC(=O)N2CCN(C)CC2)nc2sc(C(=O)NC3CC3)c(N)c12 [Example 10]
Percent Avoidance Response (Mean ± S.E.M.), Oxo + Test Compound 10 mg/kg (Male Fisher-344 rats; rat, in vivo): 85 ± 5.3%

Cc1c(Cl)c(OCCN2CCOCC2)nc2sc(C(=O)NC3CC3)c(N)c12.Cl [Example 28, 3-Amino-5-chloro-4-methyl-6-(2-morpholin-4-yl-ethoxy)-thieno[2,3-b]pyridine-2-carboxylic acid cyclopropylamide hydrochloride]
Percent Avoidance Response (Mean ± S.E.M.), Oxo + Test Compound 30 mg/kg (Male Fisher-344 rats; test compound 30 mg/kg orally 2 hours prior, Oxo 0.03 mg/kg s.c. 30 minutes prior): 84 ± 6.3%

oxotremorine sesquifumarate
Percent Avoidance Response (Mean ± S.E.M.), Oxo alone (Male Fisher-344 rats; Oxo 0.03 mg/kg subcutaneously 30 minutes prior to testing, first Oxo alone group): 93 ± 1.8% and 93 ± 1.2% and 89 ± 3.8% and 92 ± 1.5% | Percent Avoidance Response (Mean ± S.E.M.), Oxo alone (retest) (Male Fisher-344 rats; retest of Oxo alone, 0.03 mg/kg subcutaneously 30 minutes prior to testing, 0.03 mg/kg): 91 ± 0.9% and 90 ± 2.5% and 89 ± 3.2% and 91 ± 2.0%

— US8071776B2, “Thienopyridines as allosteric potentiators of the M4 muscarinic receptor” (Eli Lilly and Company, priority 2004, dated 2011)
